Assay results reported in paper PMC12602695 (Nature Communications, 2025).

System: AcTPS2
Experiment: product formation, ethyl acetate extraction, Michaelis-Menten fit
Type: biochemical, Astilbe chinensis
Details: 50 mM Tris-HCl pH 7.5, 1 mM MgCl2, 2 mM DTT, 12.5% glycerol, 0.1% Tween 20, 30 °C, 1 h

With `CC(C)=CCC/C(C)=C/CC/C(C)=C/COP(=O)(O)OP(=O)(O)O` [FPP, farnesyl diphosphate] the Km was 23.8 µM.
